The results in this text go back to US20240368173A1, “TRICYCLIC GPR65 MODULATORS” (PATHIOS THERAPEUTICS LIMITED, priority 2021, published 2024).

Bounds are passed on as bounds.

In one assay the target is human recombinant GPR65 (Homo sapiens, UniProt Q8IYL9). Nature of the assay: Human GPR65 cAMP HTRF antagonist assay. It counts as cell-based.
human recombinant GPR65, sequence (Q8IYL9 whole entry): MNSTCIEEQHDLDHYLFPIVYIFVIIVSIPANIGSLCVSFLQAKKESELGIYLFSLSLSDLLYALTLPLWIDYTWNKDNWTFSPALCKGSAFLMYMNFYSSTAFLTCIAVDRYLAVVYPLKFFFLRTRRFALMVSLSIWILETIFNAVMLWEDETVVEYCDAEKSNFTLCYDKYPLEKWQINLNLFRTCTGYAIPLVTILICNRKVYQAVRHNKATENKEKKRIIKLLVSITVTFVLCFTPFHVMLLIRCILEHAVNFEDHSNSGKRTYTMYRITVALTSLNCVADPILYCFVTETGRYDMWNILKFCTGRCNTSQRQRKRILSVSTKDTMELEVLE
Details: not given
The essentials:
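1321N1 astrocytoma cells stably expressing hrGPR65, with IBMX and EDTA, were preincubated with compound 30 min at room temperature, then acid-activated at assay pH 7.2 (control pH 7.9) for 30 min. cAMP read by HTRF (665/620 nm ratio); IC50 from 4-parameter fit normalised to high/low controls.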
For orientation: Time-resolved FRET reads energy transfer from a long-lived donor to a nearby acceptor.
One may read the IC50 as the concentration needed to halve the response being measured. For `Cc1ccc(-c2cc(F)c(NC(=O)N3[C@H]4CC[C@@H]3c3n[nH]c(=O)cc3C4)cc2Cl)cn1` [Compound 123, (6S,9R)-N-(5-Chloro-2-fluoro-4-(6-methylpyridin-3-yl)phenyl)-3-oxo-3,5,6,7,8,9-hexahydro-2H-6,9-epiminocyclohepta[c]pyridazine-10-carboxamide], the IC50 is less than 500 nM.

On to `O=C(Nc1cc(Cl)c(Cl)cc1F)N1C2CCC1c1ccnnc1C2` (racemic) [Compound 84, (±)-N-(4,5-Dichloro-2-fluorophenyl)-6,7,8,9-tetrahydro-5H-5,8-epiminocyclohepta[c]pyridazine-10-carboxamide], for which the IC50 was less than 500 nM.

`Cn1ncc2c(-c3cc(F)c(NC(=O)N4[C@H]5CC[C@@H]4c4n[nH]c(=O)cc4C5)cc3Cl)cccc21` [Compound 120, (6S,9R)-N-(5-Chloro-2-fluoro-4-(1-methyl-1H-indazol-4-yl)phenyl)-3-oxo-3,5,6,7,8,9-hexahydro-2H-6,9-epiminocyclohepta[c]pyridazine-10-carboxamide]: the IC50 is less than 500 nM.

Regarding `O=C(Nc1cc(Br)c(Cl)cc1F)N1[C@H]2CC[C@@H]1c1c[nH]c(=O)nc1C2` [Compound 26, (5R,8S)-N-(5-Bromo-4-chloro-2-fluorophenyl)-2-oxo-3,5,6,7,8,9-hexahydro-2H-5,8-epiminocyclohepta[d]pyrimidine-10-carboxamide], the IC50 is less than 500 nM.

Regarding `O=C(Nc1cc(-c2ccc3nonc3c2)c(C(F)(F)F)cc1F)N1[C@H]2CC[C@@H]1c1n[nH]c(=O)cc1C2` [Compound 254, (6S,9R)-N-(5-(Benzo[c][1,2,5]oxadiazol-5-yl)-2-fluoro-4-(trifluoromethyl)phenyl)-3-oxo-3,5,6,7,8,9-hexahydro-2H-6,9-epiminocyclohepta[c]pyridazine-10-carboxamide], the IC50 is less than 500 nM.

Turning to `O=C(Nc1cc(Cl)c(-c2cnc3nonc3c2)cc1F)N1[C@H]2CC[C@@H]1c1c[nH]c(=O)cc1C2` [Compound 189, (6S,9R)-N-(4-([1,2,5]oxadiazolo[3,4-b]pyridin-6-yl)-5-chloro-2-fluorophenyl)-3-oxo-3,5,6,7,8,9-hexahydro-2H-6,9-epiminocyclohepta[c]pyridine-10-carboxamide], the IC50 is less than 500 nM.

For `O=C(Nc1ccc(C(F)(F)F)c(Br)c1)N1[C@@H]2CC[C@H]1c1n[nH]c(=O)cc1C2` [Compound 30, (6R,9S)-N-(3-Bromo-4-(trifluoromethyl)phenyl)-3-oxo-3,5,6,7,8,9-hexahydro-2H-6,9-epiminocyclohepta[c]pyridazine-10-carboxamide], the IC50 was greater than 5000 nM.

Consider `O=C(Nc1ccc(-c2ccsc2)cc1)N1[C@H]2CC[C@@H]1c1ccnc(F)c1C2` [Compound 55, (5R,8S)-1-Fluoro-N-(4-(thiophen-3-yl)phenyl)-6,7,8,9-tetrahydro-5H-5,8-epiminocyclohepta[c]pyridine-10-carboxamide], for which the IC50 is less than 500 nM.

In the case of `N#Cc1cc(NC(=O)N2[C@H]3CC[C@@H]2c2n[nH]c(=O)cc2C3)ccc1C(F)(F)F` [Compound 41, (6S,9R)-N-(3-Cyano-4-(trifluoromethyl)phenyl)-3-oxo-3,5,6,7,8,9-hexahydro-2H-6,9-epiminocyclohepta[c]pyridazine-10-carboxamide], the IC50 was less than 500 nM.

As for `COc1ncc(-c2cc(F)c(NC(=O)N3[C@H]4CC[C@@H]3c3n[nH]c(=O)cc3C4)cc2Cl)cn1` [Compound 281, (6S,9R)-N-(5-Chloro-2-fluoro-4-(2-methoxypyrimidin-5-yl)phenyl)-3-oxo-3,5,6,7,8,9-hexahydro-2H-6,9-epiminocyclohepta[c]pyridazine-10-carboxamide], the IC50 is less than 500 nM.

Take `COCCCOc1cnc(F)c2c1[C@H]1CC[C@@H](C2)N1C(=O)Nc1cc(Cl)c(Cl)cc1F` [Compound 105, (5R,8S)—N-(4,5-Dichloro-2-fluorophenyl)-1-fluoro-4-(3-methoxypropoxy)-6,7,8,9-tetrahydro-5H-5,8-epiminocyclohepta[c]pyridine-10-carboxamide]: the IC50 is less than 500 nM.

`CO[C@H]1CC[C@@H](Oc2ccc(-c3cc(F)c(NC(=O)N4[C@H]5CC[C@@H]4c4n[nH]c(=O)cc4C5)cc3Cl)cn2)CC1` [Compound 343, (6S,9R)-N-(5-Chloro-2-fluoro-4-(6-(((1s,4s)-4-methoxycyclohexyl)oxy)pyridin-3-yl)phenyl)-3-oxo-3,5,6,7,8,9-hexahydro-2H-6,9-epiminocyclohepta[c]pyridazine-10-carboxamide]: the IC50 was less than 500 nM.

Consider `CO[C@H]1C[C@H](Oc2ccc(NC(=O)N3[C@H]4CC[C@@H]3c3ccnc(F)c3C4)cc2Cl)C1` [Compound 73, (5R,8S)-N-(3-Chloro-4-((1r,3R)-3-methoxycyclobutoxy)phenyl)-1-fluoro-6,7,8,9-tetrahydro-5H-5,8-epiminocyclohepta[c]pyridine-10-carboxamide], for which the IC50 was 500 to 5000 nM.

In the case of `O=C(Nc1cc(Cl)c(C(F)(F)F)cc1F)N1C2CCC1C(F)(F)c1c2ccnc1F` (racemic) [Compound 183, (±)—N-(5-Chloro-2-fluoro-4-(trifluoromethyl)phenyl)-1,9,9-trifluoro-6,7,8,9-tetrahydro-5H-5,8-epiminocyclohepta[c]pyridine-10-carboxamide], the IC50 is less than 500 nM.

Turning to `O=C(Nc1cc(Cl)c(Cl)cc1F)N1C2CCC1c1ncnc(F)c1C2` (racemic) [Compound 87, (±)—N-(4,5-Dichloro-2-fluorophenyl)-4-fluoro-6,7,8,9-tetrahydro-5H-6,9-epiminocyclohepta[d]pyrimidine-10-carboxamide], the IC50 was less than 500 nM.

As to `O=C(Nc1ccc(-c2nnc(C(F)(F)F)s2)cc1)N1[C@H]2CC[C@@H]1c1ccnc(F)c1C2` [Compound 66, (5R,8S)-1-Fluoro-N-(4-(5-(trifluoromethyl)-1,3,4-thiadiazol-2-yl)phenyl)-6,7,8,9-tetrahydro-5H-5,8-epiminocyclohepta[c]pyridine-10-carboxamide], the IC50 was less than 500 nM.

Regarding `O=C(Nc1cc(Cl)c(-c2ccc3nonc3c2)cc1F)N1[C@H]2CC[C@@H]1c1c[nH]c(=O)cc1C2` [Compound 167, (6S,9R)-N-(4-(Benzo[c][1,2,5]oxadiazol-5-yl)-5-chloro-2-fluorophenyl)-3-oxo-3,5,6,7,8,9-hexahydro-2H-6,9-epiminocyclohepta[c]pyridine-10-carboxamide], the IC50 was less than 500 nM.

For `CCOc1ccc(-c2cc(F)c(NC(=O)N3[C@H]4CC[C@@H]3c3c[nH]c(=O)cc3C4)cc2Cl)cn1` [Compound 272, (6S,9R)-N-(5-Chloro-4-(6-ethoxypyridin-3-yl)-2-fluorophenyl)-3-oxo-3,5,6,7,8,9-hexahydro-2H-6,9-epiminocyclohepta[c]pyridine-10-carboxamide], the IC50 is less than 500 nM.

On to `O=C(Nc1cc(Cl)c(-c2ncco2)cc1F)N1[C@H]2CC[C@@H]1c1n[nH]c(=O)cc1C2` [Compound 181, (6S,9R)-N-(5-Chloro-2-fluoro-4-(oxazol-2-yl)phenyl)-3-oxo-3,5,6,7,8,9-hexahydro-2H-6,9-epiminocyclohepta[c]pyridazine-10-carboxamide], for which the IC50 was 500 to 5000 nM.

Turning to `O=C(Nc1cc(Cl)c(Br)cc1F)N1[C@H]2CC[C@@H]1c1n[nH]c(=O)cc1C2` [Compound 32, (6S,9R)-N-(4-Bromo-5-chloro-2-fluorophenyl)-3-oxo-3,5,6,7,8,9-hexahydro-2H-6,9-epiminocyclohepta[c]pyridazine-10-carboxamide], the IC50 is less than 500 nM.

Consider `CO[C@H]1C[C@@H](Oc2ccc(NC(=O)N3[C@H]4CC[C@@H]3c3ccnc(F)c3C4)cc2Cl)C1` [Compound 72, (5R,8S)-N-(3-Chloro-4-((1s,3S)-3-methoxycyclobutoxy)phenyl)-1-fluoro-6,7,8,9-tetrahydro-5H-5,8-epiminocyclohepta[c]pyridine-10-carboxamide], for which the IC50 lay within 500 to 5000 nM.

`COc1cncc(-c2cc(F)c(NC(=O)N3[C@H]4CC[C@@H]3c3ccnc(F)c3C4)cc2Cl)c1` [Compound 248, (5R,8S)-N-(5-Chloro-2-fluoro-4-(5-methoxypyridin-3-yl)phenyl)-1-fluoro-6,7,8,9-tetrahydro-5H-5,8-epiminocyclohepta[c]pyridine-10-carboxamide]: the half-maximal inhibitory concentration (IC50) was less than 500 nM.

Regarding `O=C(Nc1cc(Cl)c(OC2CCC2)cc1F)N1[C@H]2CC[C@@H]1c1ccnc(F)c1C2` [Compound 67, (5R,8S)-N-(5-Chloro-4-cyclobutoxy-2-fluorophenyl)-1-fluoro-6,7,8,9-tetrahydro-5H-5,8-epiminocyclohepta[c]pyridine-10-carboxamide], the IC50 is less than 500 nM.

Staying with this assay, now noted: 1321N1-hrGPR65 cells, cAMP HTRF, assay pH 7.2; read-out: hGPR65 IC50 (Activity of selected compounds according to the invention).
Take `Nc1ccc(-c2cc(F)c(NC(=O)N3[C@H]4CC[C@@H]3c3n[nH]c(=O)cc3C4)cc2Cl)cn1` [Compound 118, (6S,9R)-N-(4-(6-Aminopyridin-3-yl)-5-chloro-2-fluorophenyl)-3-oxo-3,5,6,7,8,9-hexahydro-2H-6,9-epiminocyclohepta[c]pyridazine-10-carboxamide]: the IC50 fell in the range of 500 to 5000 nM.

Take `N#Cc1cnc(NC(=O)N2C3CCC2c2n[nH]c(=O)cc2C3)cc1Cl` (racemic) [Compound 43, (±)-N-(4-Chloro-5-cyanopyridin-2-yl)-3-oxo-3,5,6,7,8,9-hexahydro-2H-6,9-epiminocyclohepta[c]pyridazine-10-carboxamide]: the IC50 lay in the range of 500 to 5000 nM.

Take `Cc1n[nH]c(C)c1-c1cc(F)c(NC(=O)N2[C@H]3CC[C@@H]2c2n[nH]c(=O)cc2C3)cc1Cl` [Compound 149, (6S,9R)-N-(5-Chloro-4-(3,5-dimethyl-1H-pyrazol-4-yl)-2-fluorophenyl)-3-oxo-3,5,6,7,8,9-hexahydro-2H-6,9-epiminocyclohepta[c]pyridazine-10-carboxamide]: the IC50 lay within 500 to 5000 nM.

For the molecule `CNC(=O)c1ccc(-c2cc(F)c(NC(=O)N3[C@H]4CC[C@@H]3c3n[nH]c(=O)cc3C4)cc2Cl)cc1` [Compound 130, (6S,9R)-N-(2-Chloro-5-fluoro-4′-(methylcarbamoyl)-[1,1′-biphenyl]-4-yl)-3-oxo-3,5,6,7,8,9-hexahydro-2H-6,9-epiminocyclohepta[c]pyridazine-10-carboxamide], the IC50 lay in the range of 500 to 5000 nM.
